The text below walks through data of publication PMC5399312 (Journal of Experimental & Clinical Cancer Research : CR, 2017).

The target of data set [1] is T1, HK2 (Homo sapiens, UniProt P52789).
T1 construct: made in house; host or cells: E. coli BL21 (DE3)
T1 sequence (P52789 1-917): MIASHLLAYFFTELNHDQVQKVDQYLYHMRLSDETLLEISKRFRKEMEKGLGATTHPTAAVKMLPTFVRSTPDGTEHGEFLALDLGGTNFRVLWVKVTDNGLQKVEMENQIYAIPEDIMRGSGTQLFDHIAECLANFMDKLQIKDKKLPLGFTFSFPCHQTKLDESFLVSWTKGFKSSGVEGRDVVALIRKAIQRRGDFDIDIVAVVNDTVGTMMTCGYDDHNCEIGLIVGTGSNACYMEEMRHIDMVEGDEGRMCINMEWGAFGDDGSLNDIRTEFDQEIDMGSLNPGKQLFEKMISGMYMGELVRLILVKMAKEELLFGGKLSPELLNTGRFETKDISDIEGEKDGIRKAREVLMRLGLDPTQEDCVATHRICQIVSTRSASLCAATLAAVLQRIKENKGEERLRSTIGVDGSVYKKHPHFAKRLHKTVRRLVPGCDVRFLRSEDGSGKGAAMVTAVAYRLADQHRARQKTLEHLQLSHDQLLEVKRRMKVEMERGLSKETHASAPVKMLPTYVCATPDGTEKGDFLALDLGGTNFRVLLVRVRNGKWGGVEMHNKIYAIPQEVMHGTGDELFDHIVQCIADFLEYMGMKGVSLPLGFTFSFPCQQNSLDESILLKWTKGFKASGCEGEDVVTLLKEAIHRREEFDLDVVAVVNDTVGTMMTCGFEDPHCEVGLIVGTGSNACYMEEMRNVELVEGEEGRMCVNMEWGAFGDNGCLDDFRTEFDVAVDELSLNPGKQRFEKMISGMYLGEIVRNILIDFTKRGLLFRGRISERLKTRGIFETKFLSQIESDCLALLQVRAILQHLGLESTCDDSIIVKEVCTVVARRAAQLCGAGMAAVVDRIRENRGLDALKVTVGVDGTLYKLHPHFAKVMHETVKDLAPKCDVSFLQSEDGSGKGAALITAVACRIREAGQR
In words: Microscale thermophoresis (MST) assay. It is filed as binding. The settings on record: labelled HK2 20 nM, 25 °C. Here is the method:
MST was used to analyze the binding affinity between potential ligands and receptors. The purified HK2 was labeled with the Monolith NT™ Protein Labeling Kit RED (Cat # L001) according to the supplied labeling protocol. Labelled HK2 was kept constant at 20 nM, and all tested samples were 1:1 diluted in a 20 mM HEPES (pH 7.4) and 0.05 (v/v) % Tween-20. After 10 min incubation at room temperature, samples were loaded into Monolith™ standard-treated capillaries. And the thermophoresis was measured at 25 °C after 30 min incubation on a Monolith NT.115 instrument (Germany). Furthermore, laser power was set to 20% or 40% using 30 sec on-time. The LED power was set to 100%. The dissociation constant Kd values were fitted by using the NTAnalysis software.

Details of data set [2]: method as in PMID 17551814. The settings on record: dose range of 500-2000 mg/Kg in mice; cited from earlier work.
Data set [3] has as its target T1, HK2. The data set can be described thus: In vitro enzyme inhibition assay (G6P-DH coupled, NADH 340 nm). Type of data set: biochemical. Here is the method: Then 85 μL assay mix containing 100 mM Tris HCl pH 8.0, 5 mM MgCl2, 200 mM Glucose, 0.8 mM ATP, 1 mM NAD^+, 0.25 Units of G6P-DH, was added.
A short description of data set [4]: Cytotoxicity test (CCK-8). Type of data set: cell-based. Here is the method: (§1) Met was used as a positive control. All experiments were performed in triplicate.
The subject of another data set is HCT116. The data set can be described thus: Cytotoxicity test (CCK-8). Type of data set: cell-based. The settings on record: Homo sapiens, HCT-116; HCT116, 48 h. Here is the method:
as §1

Another data set concerns Lovo. The data set can be described thus: Cytotoxicity test (CCK-8). It is filed as cell-based. The following applies: Homo sapiens, 48 h. Here is the method: as §1
The next data set relates to MCF-7. In words: Cytotoxicity test (CCK-8). It is filed as cell-based. The following applies: Homo sapiens, MCF7; MCF-7, 48 h. Here is the method:
as §1

For another data set, the system named is SMMC-7721. The data set can be described thus: Cytotoxicity test (CCK-8). It is filed as cell-based. The settings on record: Homo sapiens, SMMC-7721, 48 h. Here is the method: as §1
The test system of the next data set is SW480. In words: Cytotoxicity test (CCK-8). It is filed as cell-based. The following applies: Homo sapiens, SW480, 48 h. Here is the method: as §1
Setting [5] is: recombinant HK2, n.i means no enzyme inhibition.
Setting [6] is: recombinant HK2, n.i means no enzyme inhibition, read-out: Enzyme IC50.

Where two headings read alike, the source gives them in different places.

As usually defined, the Kd is the concentration at which binding is half-saturated. The IC50 is the concentration that gives 50% inhibition.

For the compound `O=CC[C@@H](O)[C@H](O)[C@H](O)CO` [2-DG, 2-Deoxyglucose], at HK2 [1], the Kd entry is given as “No binding affinity”. The “therapeutic activity as a single agent” value in data set [2] is recorded as “does not have significant therapeutic activity”.
Consider `O=C(O)C(=O)CBr` [3-BrPA, 3-Bromopyruvate], for which the Kd on HK2 [1] (read-out: Kd) came to 742 ± 96.8 µM.
As to `[H]/N=C(\N/C(=N/[H])NCCCCCCNC(=N)NC(=N)Nc1ccc(Cl)cc1)Nc1ccc(Cl)cc1` [Chlorhexidine], the “Enzyme IC50” value on HK2 [3] (setting [5]) is listed as “n.i”.
On to `O=C(CO)[C@@H](O)[C@H](O)[C@H](O)CO` [D-Fructose], for which the “Enzyme IC50” value on HK2 [3] (setting [5]) is given as “n.i ^C”.
For `N[C@H]1C(O)O[C@H](CO)[C@@H](O)[C@@H]1O` (stereo partly drawn) [D-Glucosamine], the IC50 on HK2 [3] (setting [6]) was above 1000 µM.
`CNC[C@H](O)[C@@H](O)[C@H](O)[C@H](O)CO` [Meglumine] displayed an IC50 at HK2 [3] above 1000 µM.
For `CN(C)C(=N)N=C(N)N` [Metformin], at HK2 [1] (read-out: Kd), the Kd came out at 3930 ± 282 µM. Also, the concentration for half-maximal inhibition (IC50) at 48 h in data set [4] (African green monkey, Vero normal cells) is above 1000 µM; in [4] (human, LO2 normal cells) it was above 1000 µM. Also, the IC50 in the data set on HCT116, in the data set with Lovo, in the data set on MCF-7, in the data set on SMMC-7721 and in the data set with SW480 was above 1000 µM each time.
For the compound `NCCC(O)(P(=O)(O)O)P(=O)(O)O` [Pamidronate], the “Enzyme IC50” value at HK2 [3] (setting [5]) is recorded as “n.i”.
On to `O=C(O)c1cc(/N=N/c2ccc(S(=O)(=O)Nc3ccccn3)cc2)ccc1O` [Sulfasalazine], for which, at HK2 [3] (setting [6]), the IC50 is above 1000 µM.
Same read-out and setting: for `O=C1O[C@H]([C@@H](O)CO)C(O)=C1O` [Vitamin C] the value was above 1000 µM.
